The text below walks through data of US8629157B2, “Pyrrolidine compounds which modulate the CB2 receptor” (Boehringer Ingelheim International GmbH, priority 2009, dated 2014).

Chain of human CB2R (P34972 whole entry): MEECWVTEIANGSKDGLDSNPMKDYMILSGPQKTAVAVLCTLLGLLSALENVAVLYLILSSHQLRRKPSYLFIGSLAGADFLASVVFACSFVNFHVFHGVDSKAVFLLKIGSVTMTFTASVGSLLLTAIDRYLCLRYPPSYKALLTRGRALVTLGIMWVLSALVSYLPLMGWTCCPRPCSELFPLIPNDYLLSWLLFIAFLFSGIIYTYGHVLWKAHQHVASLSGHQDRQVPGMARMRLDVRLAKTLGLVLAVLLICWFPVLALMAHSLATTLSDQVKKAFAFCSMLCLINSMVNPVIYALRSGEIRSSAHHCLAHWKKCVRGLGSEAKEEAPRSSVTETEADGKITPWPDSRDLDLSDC

One experiment addresses human CB2R (Homo sapiens, UniProt P34972). Description: CB2R mediated modulation of cAMP synthesis. The format is cell-based.
Conditions: not given
As to the method:
B. CB2R Mediated Modulation of cAMP Synthesis:
Compounds of the invention were evaluated for their CB2 agonist or inverse agonistic activity in accordance with the following experimental method.
CHO cells expressing human CB2R (Euroscreen) were plated at a density of 5000 cells per well in 384 well plates and incubated overnight at 37° C. After removing the media, the cells were treated with test compounds diluted in stimulation buffer containing 1 mM IBMX, 0.25% BSA and 10 uM Forskolin. The assay was incubated for 30 minutes at 37° C. Cells were lysed and the cAMP concentration was measured using DiscoverX-XS cAMP kit, following the manufacturer's protocol. In this setting, agonists will decrease forskolin induced production of cAMP while inverse agonists will further increase forskolin induced production of cAMP. EC50 of agonists were calculated as follows. The maximal amount of cAMP produced by forskolin compared to the level of cAMP inhibited by 1 uM CP55940 is defined as 100%. […] Data was analyzed using a four-parameter logistic model. (Model 205 of XLfit 4.0).
Broadly, the EC50 is the concentration that produces a half-maximal response. In the case of `Cc1ccc(NC(=O)[C@@H]2CCC(=O)N2c2ccc(Cl)cc2)nc1` [(S)-1-(4-Chloro-phenyl)-5-oxo-pyrrolidine-2-carboxylic acid (5-methyl-pyridin-2-yl)-amide], the response was half-maximal at 485 nM (EC50).

Consider `CC(C)(C)c1cc(NC(=O)[C@@H]2C[C@@H](O)CN2C2CCCCC2)no1` [(2S,4R)-1-Cyclohexyl-4-hydroxy-pyrrolidine-2-carboxylic acid (5-tert-butyl-isoxazol-3-yl)-amide], for which the EC50 came to 4.69 nM.

Take `CC(C)(C)c1cc(NC(=O)[C@@H]2CCCN2C2CCCCC2)on1` [(S)-1-Cyclohexyl-pyrrolidine-2-carboxylic acid (3-tert-butyl-isoxazol-5-yl)-amide]: it took 0.173 nM to reach a half-maximal effect (EC50).

Compound `CC(C)(C)c1cc(NC(=O)[C@@H]2CCC(=O)N2c2ccc(CF)cc2)on1` [(S)-1-(4-Fluoromethyl-phenyl)-5-oxo-pyrrolidine-2-carboxylic acid (3-tert-butyl-isoxazol-5-yl)-amide] yielded an EC50 of 55.8 nM.

The compound `CC(C)(C)c1nnc(NC(=O)[C@@H]2C[C@@H](O)CN2CC2CCOCC2)s1` [(2S,4R)-4-Hydroxy-1-(tetrahydro-pyran-4-ylmethyl)-pyrrolidine-2-carboxylic acid (5-tert-butyl-1,3,4-thiadiazol-2-yl)-amide] registered an EC50 of 69.8 nM.

`CC(C)(C)c1cc(NC(=O)[C@@H]2C[C@@H](O)CN2c2ncc(C(F)(F)F)cc2Cl)no1` [(2S,4R)-1-(3-Chloro-5-trifluoromethyl-pyridin-2-yl)-4-hydroxy-pyrrolidine-2-carboxylic acid (5-tert-butyl-isoxazol-3-yl)-amide] came in with an EC50 of 5.04 nM.

For the compound `CC1CCCCC1N1CCC[C@H]1C(=O)Nc1nnc(C(C)(C)C)s1` (stereo partly drawn) [1-(2-Methyl-cyclohexyl)-pyrrolidine-2-carboxylic acid (5-tert-butyl-1,3,4-thiadiazol-2-yl)-amide], the EC50 is 255 nM.

On to `COCC(C)(C)c1cc(NC(=O)[C@@H]2CCC(=O)N2c2ccc(Cl)cc2)on1` [(S)-l-(4-Chloro-phenyl)-5-oxo-pyrrolidine-2-carboxylic acid [3-(2-methoxy-1,1-dimethyl-ethyl)-isoxazol-5-yl]-amide], for which the EC50 was found to be 48.7 nM.

With `CC(C)(C)c1cc(NC(=O)[C@@H]2CCC(=O)N2c2ccc(Cl)c(Cl)c2)on1` [(S)-1-(3,4-Dichloro-phenyl)-5-oxo-pyrrolidine-2-carboxylic acid (3-tert-butyl-isoxazol-5-yl)-amide], it took 16.1 nM to reach a half-maximal effect (EC50).

Compound `CC(C)(C)c1cc(NC(=O)[C@@H]2CCCN2c2ccc(C(F)(F)F)cn2)on1` [(S)-1-(5-Trifluoromethyl-pyridin-2-yl)-pyrrolidine-2-carboxylic acid (3-tert-butyl-isoxazol-5-yl)-amide] showed an EC50 of 0.023 nM.

Turning to `O=C(Nc1ccc(C(F)(F)F)cn1)[C@H]1CCCN1c1ccc(C(F)(F)F)cc1` [(R)-1-(4-Trifluoromethyl-phenyl)-pyrrolidine-2-carboxylic acid (5-trifluoromethyl-pyridin-2-yl)-amide], the response was half-maximal at 70.7 nM (EC50).

In turn, `CC(C)(C)c1cc(NC(=O)[C@@H]2CCC(=O)N2c2ncc(Cl)cn2)on1` [(S)-1-(5-Chloro-pyrimidin-2-yl)-5-oxo-pyrrolidine-2-carboxylic acid (3-tert-butyl-isoxazol-5-yl)-amide] displayed an EC50 of 455 nM.

Regarding `CC(C)(C)c1cc(NC(=O)[C@@H]2C[C@@H](O)CN2C2CCOCC2)on1` [(2S,4R)-4-Hydroxy-1-(tetrahydro-pyran-4-yl)-pyrrolidine-2-carboxylic acid (3-tert-butyl-isoxazol-5-yl)-amide], the EC50 worked out at 328 nM.

The compound `CC(C)(C)c1cc(NC(=O)[C@@H]2CCC(=O)N2c2cccc(F)c2F)on1` [(S)-1-(2,3-Difluoro-phenyl)-5-oxo-pyrrolidine-2-carboxylic acid (3-tert-butyl-isoxazol-5-yl)-amide] had an EC50 of 261 nM.

As for `CC(C)(C)c1cc(NC(=O)[C@@H]2C[C@@H](O)CN2Cc2ccc(F)c(F)c2)no1` [(2S,4R)-1-(3,4-Difluoro-benzyl)-4-hydroxy-pyrrolidine-2-carboxylic acid (5-tert-butyl-isoxazol-3-yl)-amide], it took 12.3 nM to reach a half-maximal effect (EC50).

Regarding `CC(C)(C)c1cc(NC(=O)[C@@H]2C[C@H](O)CN2c2ccc(C(F)(F)F)cn2)no1` [(2S,4S)-4-Hydroxy-1-(5-trifluoromethyl-pyridin-2-yl)-pyrrolidine-2-carboxylic acid (5-tert-butyl-isoxazol-3-yl)-amide], the EC50 was 27.9 nM.

The compound `O=C(Nc1nc2cc(Cl)ccc2[nH]1)[C@@H]1CCCN1CC1CCOCC1` [(S)-1-(Tetrahydro-pyran-4-ylmethyl)-pyrrolidine-2-carboxylic acid (5-chloro-1H-benzimidazol-2-yl)-amide] had an EC50 of 48.6 nM.

In the case of `O=C(Nc1ccc(C(F)(F)F)cn1)[C@@H]1CCCN1c1ccc(Cl)cc1` [(S)-1-(4-Chloro-phenyl)-pyrrolidine-2-carboxylic acid (5-trifluoromethyl-pyridin-2-yl)-amide], the EC50 turned out to be 35.1 nM.

The compound `CC(C)(C)c1cc(NC(=O)[C@@H]2C[C@@H](O)CN2c2ccc(C(F)(F)F)cn2)on1` [(2S,4R)-4-Hydroxy-1-(5-trifluoromethyl-pyridin-2-yl)-pyrrolidine-2-carboxylic acid (3-tert-butyl-isoxazol-5-yl)-amide] came in with a concentration for a half-maximal effect (EC50) of 0.433 nM.

Turning to `CCc1ccc(N2C(=O)CC[C@H]2C(=O)Nc2cc(C(C)(C)C)no2)cc1` [(S)-1-(4-Ethyl-phenyl)-5-oxo-pyrrolidine-2-carboxylic acid (3-tert-butyl-isoxazol-5-yl)-amide], the midpoint of the response, the EC50, lay at 173 nM.

`O=C(Nc1nc(-c2ccccc2)ns1)[C@@H]1CCCN1CC1CCOCC1` [(S)-1-(Tetrahydro-pyran-4-ylmethyl)-pyrrolidine-2-carboxylic acid (3-phenyl-1,2,4-thiadiazol-5-yl)-amide] registered an EC50 of 40 nM.

`CC1CC(NC(=O)[C@@H]2CCCN2c2ccc(Cl)cc2)CC(C)(C)C1` (stereo partly drawn) [(S)-1-(4-Chloro-phenyl)-pyrrolidine-2-carboxylic acid (3,3,5-trimethyl-cyclohexyl)-amide] had an EC50 of 2.16 nM.

As for `CC(C)(C)c1cc(NC(=O)[C@@H]2C[C@@H](O)CN2c2ccc(Cl)cc2)no1` [(2S,4R)-1-(4-Chloro-phenyl)-4-hydroxy-pyrrolidine-2-carboxylic acid (5-tert-butyl-isoxazol-3-yl)-amide], the EC50 amounted to 14.4 nM.

Consider `CC(C)(C)c1cc(NC(=O)C2CCCN2c2ccc(Cl)cn2)no1` (stereo not drawn) [1-(5-Chloro-pyridin-2-yl)-pyrrolidine-2-carboxylic acid (5-tert-butyl-isoxazol-3-yl)-amide], for which a half-maximal response (EC50) required 0.364 nM.

In the case of `CC(C)(C)c1cc(NC(=O)[C@@H]2CC(=O)CN2c2ncc(C(F)(F)F)cc2Cl)no1` [(S)-1-(3-Chloro-5-trifluoromethyl-pyridin-2-yl)-4-oxo-pyrrolidine-2-carboxylic acid (5-tert-butyl-isoxazol-3-yl)-amide], a half-maximal effect (EC50) was put at 40.2 nM.

The experiment is the same for the next values; noted with them: CHO cells expressing human CB2R; inhibition of forskolin-stimulated cAMP synthesis; mean; read-out: CB2 CAMP @ EC50 nM (mean).
With `CC(C)(C)c1cc(NC(=O)[C@@H]2CCC(=O)N2c2ccc(C#N)c(F)c2)on1` [(S)-1-(4-Cyano-3-fluoro-phenyl)-5-oxo-pyrrolidine-2-carboxylic acid (3-tert-butyl-isoxazol-5-yl)-amide], the EC50 is 286 nM.

`CC(C)(C)c1cc(NC(=O)[C@@H]2CCC(=O)N2c2cccc(Cl)c2)no1` [(S)-1-(3-Chloro-phenyl)-5-oxo-pyrrolidine-2-carboxylic acid (5-tert-butyl-isoxazol-3-yl)-amide]: the EC50 is 296 nM.
